Assays:
[1] = target: NA of A/Texas/12/2007 A(H3N2), NA-E119V (Influenza A virus, UniProt D1FVK3, I119V); assay: biochemical
[2] = target: NA of A/Bethesda/956/2006 A(H3N2), NA-R292K (Influenza A virus, UniProt F1KL32, R292K); format: biochemical; conditions: read-out: Susceptibility to NAIs, mean IC50 ± SD

**Q.** Which IC50 [1] does the source give for `CC(=O)N[C@H]1[C@H]([C@H](O)[C@H](O)CO)OC(C(=O)O)=C[C@@H]1N=C(N)N` [Zanamivir, zanamivir] here?
**A.** 1.3 nM

**Q.** What about the IC50 [2] of the same compound?
**A.** 10.6 ± 1.4 nM

Source: PMC10528385 (Antiviral research, 2023)
